Results published in patent US12673954B2 (BRISTOL-MYERS SQUIBB COMPANY, priority 2021, dated 2026).

Tests used:
[1] = system: IRF pathway, THP1-Dual™ cells; assay: STING reporter assay in THP1-Dual cells, IRF pathway (Lucia luciferase, QUANTI-Luc); format: cell-based, human; conditions: Homo sapiens, THP1-Dual, 20 h, THP1-Dual cells, 10% human plasma, 20 hours; Lucia luciferase; 100% activation = 100 μM cGAMP; read-out: IRF (EC50 μM)
Outline: (§1)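 THP-1-derived dual-reporter cells treated with serially diluted compounds (final top concentration 100 μM) for 20 h at 37° C. NF-κB read as SEAP via QUANTI-Blue at OD620; IRF read as Lucia luminescence via QUANTI-Luc after 5 min. 100% activation set by 100 μM cGAMP, baseline by DMSO.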

[2] = system: NF-κB pathway, THP1-Dual™ cells; assay: STING reporter assay in THP1-Dual cells, NF-κB pathway (SEAP, QUANTI-Blue); format: cell-based, human; conditions: Homo sapiens, THP1-Dual, 20 h, THP1-Dual cells, 10% human plasma, 20 hours; SEAP; 100% activation = 100 μM cGAMP; read-out: NFkB (EC50 μM)
Outline: as §1

EC50 [1] | EC50 [2] | Compound
1.8 µM | 1 µM | O=C(OC1CC(F)(F)C1)c1cc(Cl)cc2cc(CNC(=O)c3cnn4cccnc34)oc12 [EXAMPLE 245, 3,3-Difluorocyclobutyl 5-chloro-2-((pyrazolo[1,5-a]pyrimidine-3-carboxamido)methyl)benzofuran-7-carboxylate]
0.53 µM | 0.29 µM | CCSC(=O)c1cc(C)cc2cc(CNC(=O)c3cnn4cccnc34)oc12 [EXAMPLE 390, S-Ethyl 5-methyl-2-((pyrazolo[1,5-a]pyrimidine-3-carboxamido)methyl)benzofuran-7-carbothioate]
